Test results: patent US10336732B2, “1-heterocyclyl isochromanyl compounds and analogs for treating CNS disorders” (Sunovion Pharmaceuticals Inc., priority 2015, dated 2019)

Assays:
5-HT2B = target: T1, 5-HT2B (Homo sapiens, UniProt P41595); experiment: In vitro radioligand binding assay, 5-HT2B, [125I](±)DOI; set-up: concentration or dose not given beside the values; conditions: human recombinant (CHO cells)
T1 construct: expressed in transfected cells; host or cells: CHO cells
Protocol: (§1) Certain compounds were tested by in vitro binding assays using standard procedures. […] These receptors and assays are well known to those skilled in the art, as exemplified by the following: Abramovitz, M. et al. (2000), Biochem. Biophys. Acta., 1483: 285-293 (EP4, IP (PGI2)); Aharony, D. et al. (1993), Mol. Pharmacol., 44: 356-363 (NK2); Ardati, A. et al. (1997), Mol. Pharmacol., 51: 816-824 (NOP (ORL1)); Bignon, E. et al. (1999), J. Pharmacol. Exp. Ther. 289: 742-751 (CCK1 (CCKA)); Bloomquist, B. T. et al. (1998), Biochem. Biophys. Res. Commun., 243: 474-479 (GAL2); Brockhaus, M. et al. (1990), Proc. Natl. Acad. Sci. U.S.A., 87: 3127-3131 (TNF-α); Brown, G. B. (1986), J. Neurosci., 6: 2064-2070 (Na+ channel (site 2)); Buchan, K. W. et al. (1994), Brit. J. Pharmacol., 112: 1251-1257 (ETA); Cesura, A. M. et al. (1990), Mol. Pharmacol., 37: 358-366 (MAO-A); Choi, D. S. et al. (1994), FEBS Lett., 352: 393-399 (5-HT2B); Clark, A. F. et al. (1996), Invest. Ophtalmol. Vis. Sci., 37: 805-813 (GR); Couvineau, A. et al. (1985), Biochem. J., 231: 139-143 (VPAC1 (VIP1)); Dorje, F. et al. (1991), J. Pharmacol. Exp. Ther., 256: 727-733 (M1, M2, M3, M4); Ferry, G. et al. (2001), Eur. J. Pharmacol., 417: 77-89 (PPARγ); Fuchs, S. et al. (2001), Mol. Med., 7: 115-124 (ETB); Fuhlendorff, J. et al. (1990), Proc. Natl. Acad. Sci. U.S.A., 87: 182-186 (Y2); Ganapathy M E. et al. (1999), J. Pharmacol. Exp. Ther., 289: 251-260 (sigma (non-selective)); Gopalakrishnan, M. et al. (1996), J. Pharmacol. Exp. Ther., 276: 289-297 (N neuronal α4β2); Greengrass, P. and Bremner, R. (1979), Eur. J. Pharmacol., 55: 323-326 (α1 (non-selective)); Grandy, D. K. et al. (1989), Proc. Natl. Acad. Sci. U.S.A., 86: 9762-9766 (D25); Guard, S. et al. (1993), Eur. J. Pharmacol., 240:177-184 (BB (non-selective)); Heuillet, E. et al. (1993), J. Neurochem., 60: 868-876 (NK1, P2X); Hope, A. G. et al. (1996), Brit. J. Pharmacol., 118: 1237-1245 (5-HT3); Hoyer, D. et al. (1985), Eur. J. Pharmacol., 118: 1-12 (5-HT1B); Hugues, M. et al. (1982), J. Biol. Chem., 257: 2762-2769 (5-HT2A, SKCa channel); Joseph, S. S. et al. (2004), Naun.-Sch. Arch. Pharm., 369: 525-532 (β2); Le, M. T. et al. (2005), Eur. J. Pharmacol., 513: 35-45 (AT1); Le Fur, G. et al. (1983), Life Sci., 33: 449-457) (BZD (peripheral); Lee, Y. M. et al. (1993), J. Biol. Chem., 268: 8164-8169 (CCK2 (CCKB)); Leurs, R. et al. (1994), Brit. J. Pharmacol., 112: 847-854 (H2); Levin, M. C. et al. (2002), J. Biol. Chem., 277: 30429-30435 (11); Lewin, A. H. et al. (1989), Mol. Pharmacol., 35: 189-194 (Cl− channel (GABA-gated)); Lukas, R. J. (1986), J. Neurochem., 46: 1936-1941 (N muscle-type); Luthin, D. R. et al. (1995), Mol. Pharmacol., 47: 307-313; (A2A); Mackenzie, R. G. et al. (1994), Eur. J. Pharmacol., 266: 79-85 (D3); Mulheron, J. G. et al. (1994), J. Biol. Chem., 269: 12954-12962 (5-HT1A); Meng, F. et al. (1993), Proc. Natl. Acad. Sci. U.S.A., 90: 9954-9958 (κ (KOP)); Monsma, F. J. et al. (1993), Mol. Pharmacol., 43: 320-327 (5-HT6); Neote, K. et al. (1993), Cell, 72: 415-425 (CCR1); Pacholczyk, T. et al. (1991), Nature, 350: 350-354 (sst (non-selective, norepinephrine transporter)); Peralta, E. G. et al. (1987), Embo. J., 6: 3923-3929 (M3); Pristupa, Z. B. et al. (1994), Mol. Pharmacol., 45: 125-135 (dopamine transporter); Pruneau, D. et al. (1998), Brit. J. Pharmacol., 125: 365-372 (B2); Rees, S. et al. (1994), FEBS Lett., 355: 242-246 (5-HT5a); Reynolds, I. J. et al. (1986), J. Pharmacol. Exp. Ther., 237: 731-738 (Ca2+ channel (L, verapamil site)); Rinaldi-Carmona, M. et al. (1996), J. Pharmacol. Exp. Ther., 278: 871-878 (CB1); Salvatore, C. A. et al. (1993), Proc. Natl. Acad. Sci. U.S.A., 90: 10365-10369 (A3); Sarau, H. M. et al. (1997), J. Pharmacol. Exp. Ther., 281: 1303-1311 (NK3); Schioth, H. B. et al. (1997), Neuropeptides, 31: 565-571 (MC4); Sharples, C. […]

α1 (non-selective) = experiment: In vitro radioligand binding assay, α1 (non-selective), [3H]prazosin; set-up: concentration or dose not given beside the values; conditions: rat cerebral cortex membranes
Protocol: as §1

T1 sequence (P41595 whole entry): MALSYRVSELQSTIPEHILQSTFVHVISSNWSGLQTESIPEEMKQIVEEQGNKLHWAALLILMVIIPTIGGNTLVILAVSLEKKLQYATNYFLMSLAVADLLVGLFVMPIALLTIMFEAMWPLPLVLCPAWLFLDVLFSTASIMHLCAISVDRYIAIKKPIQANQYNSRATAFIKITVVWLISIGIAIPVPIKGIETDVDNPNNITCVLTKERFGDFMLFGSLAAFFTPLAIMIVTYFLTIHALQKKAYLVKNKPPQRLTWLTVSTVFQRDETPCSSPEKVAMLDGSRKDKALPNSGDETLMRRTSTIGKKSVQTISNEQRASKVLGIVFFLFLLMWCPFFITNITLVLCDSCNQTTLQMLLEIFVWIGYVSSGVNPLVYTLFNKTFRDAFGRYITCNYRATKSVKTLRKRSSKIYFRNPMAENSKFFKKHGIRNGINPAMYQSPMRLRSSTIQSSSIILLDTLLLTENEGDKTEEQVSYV

Compound	5HT2b percent inhibition of specific binding (5-HT2B) [%]	α1 percent inhibition of specific binding (α1 (non-selective)) [%]
Clc1ccc2c(c1)[C@H]([C@@H]1CCCN1)OCC2 [Compound I-29, (S)-2-((R)-7-chloroisochroman-1-yl)pyrrolidine]	80	69
Fc1ccc2c(c1)CCO[C@H]2[C@@H]1CCN1 [Compound I-90, (S)-2-((R)-6-fluoroisochroman-1-yl)azetidine]	77	64
Fc1cccc2c1CCO[C@@H]2[C@H]1CCN1 [Compound I-96, (R)-2-((S)-5-fluoroisochroman-1-yl)azetidine]	58	81
Fc1ccc2c(c1)[C@H]([C@@H]1CCCN1)OCC2 [Compound I-5, (2S)-2-((R)-7-fluoroisochroman-1-yl)pyrrolidine]	72	59
Fc1cccc2c1[C@H]([C@@H]1CCN1)OCC2 [Compound I-83, (S)-2-((R)-8-fluoroisochroman-1-yl)azetidine]	83	–
Fc1cccc2c1CCO[C@@H]2[C@@H]1CCN1 [Compound I-94, (S)-2-((S)-5-fluoroisochroman-1-yl)azetidine]	76	72
Fc1cccc2c1[C@H]([C@@H]1CCCN1)OCC2 [Compound I-1, (S)-2-((R)-8-fluoroisochroman-1-yl)pyrrolidine]	79	55
Fc1ccc2c(c1)CCO[C@H]2[C@@H]1CCCN1 [Compound I-9, (S)-2-((R)-6-fluoroisochroman-1-yl)pyrrolidine]	76	73
